These results are taken from publication PMC8444087 (Toxicology and Applied Pharmacology, 2021).

Bridge positions count the residues as written; N and C are the ends. Ends that are not written are not given here.

For one experiment, the target named is T1, α1 I-domain (Homo sapiens, UniProt P56199).
T1 construct: GST-tagged αI-domains were tested in static adhesion assays; made in house
T1 sequence (P56199 161-360 limits assumed): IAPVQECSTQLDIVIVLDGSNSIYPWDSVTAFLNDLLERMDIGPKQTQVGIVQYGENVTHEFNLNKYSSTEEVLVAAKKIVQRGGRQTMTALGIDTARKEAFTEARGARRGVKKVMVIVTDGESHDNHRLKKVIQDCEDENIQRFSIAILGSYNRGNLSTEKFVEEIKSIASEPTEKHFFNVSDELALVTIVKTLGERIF
Kind of experiment: Protein static adhesion assay: GST-tagged α1 I-domain adhesion to GLOGEN peptide coating. It is filed as binding. To be noted: TC-I-15 200 μM, Obtustatin 20 μM, 6F1 10 μg/ml. As to the method:
Immulon 2HB 96-well plates were coated with 100 μl per well of peptides at 10 μg/ml in 0.01 M acetic acid. After 3 × 200 μl/well washes with washing buffer (1 mg/ml BSA in TBS), plates were blocked with 200 μl per well of filtered 3% BSA in TBS for 1 h at RT. αI-domains were added at 10 μg/ml in washing buffer for 1 h at RT with 5 mM MgCl2 and various concentrations of inhibitor as stated. After 3 × 200 μl/well washes with washing buffer, anti-GST detection antibody (GE Healthcare HRP conjugated anti-GST GERPN1236) were added for 1 h. Plates were washed 4× with 200 μl per well of washing buffer and bound protein was quantified using the Pierce™ TMB Substrate Kit. The colorimetric reaction was stopped with an equal volume of 1 M H2SO4 and A450 was read as above. Each condition was performed in triplicate and each experiment was repeated at least three times using different preparations of proteins. […]
Fig. 1 Inhibition of binding of recombinant αI-domains to peptide coatings. Adhesion of A, α1 I-domain to GLOGEN and B, α2 I-domain to GFOGER, was measured using anti-GST-HRP conjugated antibody as described in Materials and methods, and is shown as mean A450 ± SD. […]

The target of a further experiment is T2, α10β1 (UniProt O75578+P09055).
T2 construct: expressed in transfected cells; host or cells: C2C12-α10 clone (gift, Xintela AB)
As to the kind of experiment: Cellular static adhesion assay: C2C12 cells expressing α10β1 on collagen peptides. It is filed as cell-based, human α-subunit, mouse β-subunit. As to conditions: C2C12-α10β1, GFOGER and GLOGEN coatings. The protocol: (§1) C2C12s and HT1080s were grown in Lifetech DMEM/10% FBS and 1% penicillin/streptomycin. All cells were maintained under sterile conditions at 37 °C, 5% CO2. Cells were passaged using Trypsin/EDTA at 37 °C for 5 min and DMEM/10% FBS to quench the trypsin. C2C12 cells were transfected as described previously ([Tiger et al., 2001]). The C2C12-α10 clone was kindly made available by Dr. Evy Lundgren-Åkerlund, Xintela AB, Sweden.
(§2) Immulon 2HB 96-well plates were coated with 100 μl per well of peptides at 10 μg/ml in 0.01 M acetic acid overnight at 4 °C. After 3 × 200 μl/well PBS washes, plates were blocked with 200 μl/well filtered 3% BSA in PBS at RT for 1 h. Plates were washed, and 20,000 cells/well were added at room temperature (RT) for 1 h in serum-free media with 5 mM MgCl2 and varying concentrations of inhibitor. Unbound cells were washed away with 3× washes of 200 μl/well PBS. […] Cell number was quantified using 50 μl per well of the Roche cytotoxicity LDH kit. […] A490 was read in a SpectraMax 190 microplate reader (Molecular Devices). […]
(§3) PRISM 8.2.1 or later (GraphPad, San Diego, CA, USA), was used for all statistical tests. […] Inhibition curves were analysed using nonlinear regression comparing each data set with either a horizontal line model (null hypothesis, no inhibition) or three-parameter dose-response curve (inhibition occurs). […]

For a further experiment, the target named is T3, α11β1 (UniProt P09055+Q9UKX5).
T3 construct: expressed in transfected cells; host or cells: C2C12 mouse myofibroblasts, stably transfected
Kind of experiment: Cellular static adhesion assay: C2C12 cells expressing α11β1 on collagen peptides. The class given is cell-based, human α-subunit, mouse β-subunit. As to the method:
as §1, §2, §3

The test system of the next experiment is E318A mutation of α2β1. Further details: method as in Miller et al., 2009. To be noted: ref Miller et al., 2009; cited from earlier work.
The test system of the next experiment is platelets. Set-up: method as in Miller et al., 2009. To be noted: RGD-containing ligands; ref Miller et al., 2009; cited from earlier work.
For experiment [1], the target named is integrin α1β1 on stably transfected C2C12 cells (human | mouse (endogenous in C2C12)) (UniProt P56199). Kind of experiment: static cell adhesion assay; inhibition by obtustatin (dose curve) of the adhesion of integrin-expressing cells to coated GFOGER; 1 h at RT, serum-free medium, 5 mM MgCl2; three-parameter dose-response fit.
Experiment [2] shares this target. As to the kind of experiment: static cell adhesion assay; inhibition by obtustatin (dose curve) of the adhesion of integrin-expressing cells to coated GLOGEN; 1 h at RT, serum-free medium, 5 mM MgCl2; three-parameter dose-response fit.
In the next experiment the target is T4, α2 I-domain (Homo sapiens, UniProt P17301).
T4 construct: GST-tagged αI-domains were tested in static adhesion assays; made in house
T4 sequence (P17301 188-365 limits assumed): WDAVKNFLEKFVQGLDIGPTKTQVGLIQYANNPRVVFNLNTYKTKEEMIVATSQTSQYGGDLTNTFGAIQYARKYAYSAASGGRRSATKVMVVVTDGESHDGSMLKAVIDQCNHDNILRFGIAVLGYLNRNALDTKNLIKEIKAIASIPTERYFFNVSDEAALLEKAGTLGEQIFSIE
Kind of experiment: Protein static adhesion assay: GST-tagged α2 I-domain adhesion to GFOGER peptide coating. It is filed as binding. As to conditions: TC-I-15 200 μM, Obtustatin 20 μM.

The target of experiment [3] is T5, α2β1 (UniProt P09055+P17301).
T5 construct: expressed in transfected cells; host or cells: C2C12 mouse myofibroblasts, stably transfected
Kind of experiment: Cellular static adhesion assay: C2C12 cells expressing α2β1 on collagen peptides. It is filed as cell-based, human α-subunit, mouse β-subunit. As to conditions: C2C12-α2β1, GFOGER and GLOGEN coatings. The text has this: (§4) (For interpretation of the references to colour in this figure legend, the reader is referred to the web version of this article.)

In experiment [4] the target is T6, α2β1 (Homo sapiens, UniProt P05556+P17301).
T6 construct: endogenous in cells; host or cells: HT1080 human fibrosarcoma cells
Kind of experiment: Cellular static adhesion assay: HT1080 cells (express α2β1) on GFOGER. As to conditions: GFOGER coating, dose curve. It is filed as cell-based.
Text: as §4

In another experiment the test system is Lewis lung carcinoma. Set-up: method as in Marcinkiewicz et al., 2003; Brown et al., 2008. To be noted: mouse Lewis lung carcinoma model; ref Marcinkiewicz et al., 2003; Brown et al., 2008; cited from earlier work.
The subject of another experiment is melanoma. Further details: method as in Marcinkiewicz et al., 2003; Brown et al., 2008. To be noted: mice; ref Marcinkiewicz et al., 2003; Brown et al., 2008; cited from earlier work.

integrin α1β1 on stably transfected C2C12 cells (human | mouse (endogenous in C2C12)), sequence (P56199 29-1179, chain 1 of 2): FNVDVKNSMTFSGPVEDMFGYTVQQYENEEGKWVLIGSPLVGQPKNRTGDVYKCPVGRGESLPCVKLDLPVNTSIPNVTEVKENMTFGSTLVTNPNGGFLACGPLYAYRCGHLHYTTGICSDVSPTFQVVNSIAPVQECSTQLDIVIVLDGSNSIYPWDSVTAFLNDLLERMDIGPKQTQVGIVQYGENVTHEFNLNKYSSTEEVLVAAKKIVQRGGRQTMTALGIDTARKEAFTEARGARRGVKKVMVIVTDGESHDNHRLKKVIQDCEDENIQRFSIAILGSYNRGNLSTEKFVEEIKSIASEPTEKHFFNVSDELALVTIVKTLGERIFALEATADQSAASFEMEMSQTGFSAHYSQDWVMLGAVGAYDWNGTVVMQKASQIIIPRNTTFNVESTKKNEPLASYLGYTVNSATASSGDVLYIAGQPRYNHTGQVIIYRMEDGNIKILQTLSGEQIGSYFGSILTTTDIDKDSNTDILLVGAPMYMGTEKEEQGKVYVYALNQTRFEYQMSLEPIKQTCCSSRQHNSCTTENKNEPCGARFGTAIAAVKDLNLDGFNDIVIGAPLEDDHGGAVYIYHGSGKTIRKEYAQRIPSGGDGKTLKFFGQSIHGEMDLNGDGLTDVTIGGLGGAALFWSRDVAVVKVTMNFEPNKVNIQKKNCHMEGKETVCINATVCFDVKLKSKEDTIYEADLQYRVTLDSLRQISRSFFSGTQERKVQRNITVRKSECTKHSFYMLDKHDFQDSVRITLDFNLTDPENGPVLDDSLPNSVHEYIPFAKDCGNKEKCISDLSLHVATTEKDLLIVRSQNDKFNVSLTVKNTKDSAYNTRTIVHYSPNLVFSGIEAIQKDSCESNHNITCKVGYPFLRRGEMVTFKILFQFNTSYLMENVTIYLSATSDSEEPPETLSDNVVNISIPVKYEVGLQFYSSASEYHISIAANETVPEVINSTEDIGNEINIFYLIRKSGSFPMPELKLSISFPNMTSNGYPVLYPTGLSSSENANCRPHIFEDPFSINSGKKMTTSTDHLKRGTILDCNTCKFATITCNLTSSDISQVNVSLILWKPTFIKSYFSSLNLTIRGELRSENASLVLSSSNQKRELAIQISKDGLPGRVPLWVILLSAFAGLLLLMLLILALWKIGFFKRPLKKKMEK
integrin α1β1 on stably transfected C2C12 cells (human | mouse (endogenous in C2C12)), sequence (P09055 21-798, chain 2 of 2, further chain): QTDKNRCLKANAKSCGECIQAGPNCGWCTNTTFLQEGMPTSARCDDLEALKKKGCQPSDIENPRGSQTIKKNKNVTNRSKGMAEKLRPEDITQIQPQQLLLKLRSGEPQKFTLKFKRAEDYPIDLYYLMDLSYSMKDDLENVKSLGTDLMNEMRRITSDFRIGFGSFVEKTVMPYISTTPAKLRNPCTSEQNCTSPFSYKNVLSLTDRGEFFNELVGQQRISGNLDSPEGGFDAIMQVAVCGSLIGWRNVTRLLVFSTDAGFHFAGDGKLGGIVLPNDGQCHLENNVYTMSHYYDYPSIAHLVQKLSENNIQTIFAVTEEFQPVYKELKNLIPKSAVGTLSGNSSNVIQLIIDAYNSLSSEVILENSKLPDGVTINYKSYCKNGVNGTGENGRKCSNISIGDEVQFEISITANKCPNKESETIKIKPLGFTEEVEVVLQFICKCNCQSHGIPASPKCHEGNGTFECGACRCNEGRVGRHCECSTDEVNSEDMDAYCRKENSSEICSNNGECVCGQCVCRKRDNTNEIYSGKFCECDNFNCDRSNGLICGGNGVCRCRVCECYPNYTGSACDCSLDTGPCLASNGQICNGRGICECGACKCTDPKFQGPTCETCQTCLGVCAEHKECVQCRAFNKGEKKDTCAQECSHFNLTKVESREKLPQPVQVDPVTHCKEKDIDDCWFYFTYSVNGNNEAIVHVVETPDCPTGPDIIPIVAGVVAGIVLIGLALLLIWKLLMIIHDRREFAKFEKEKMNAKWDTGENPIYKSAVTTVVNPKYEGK
T3 sequence (Q9UKX5 23-1188): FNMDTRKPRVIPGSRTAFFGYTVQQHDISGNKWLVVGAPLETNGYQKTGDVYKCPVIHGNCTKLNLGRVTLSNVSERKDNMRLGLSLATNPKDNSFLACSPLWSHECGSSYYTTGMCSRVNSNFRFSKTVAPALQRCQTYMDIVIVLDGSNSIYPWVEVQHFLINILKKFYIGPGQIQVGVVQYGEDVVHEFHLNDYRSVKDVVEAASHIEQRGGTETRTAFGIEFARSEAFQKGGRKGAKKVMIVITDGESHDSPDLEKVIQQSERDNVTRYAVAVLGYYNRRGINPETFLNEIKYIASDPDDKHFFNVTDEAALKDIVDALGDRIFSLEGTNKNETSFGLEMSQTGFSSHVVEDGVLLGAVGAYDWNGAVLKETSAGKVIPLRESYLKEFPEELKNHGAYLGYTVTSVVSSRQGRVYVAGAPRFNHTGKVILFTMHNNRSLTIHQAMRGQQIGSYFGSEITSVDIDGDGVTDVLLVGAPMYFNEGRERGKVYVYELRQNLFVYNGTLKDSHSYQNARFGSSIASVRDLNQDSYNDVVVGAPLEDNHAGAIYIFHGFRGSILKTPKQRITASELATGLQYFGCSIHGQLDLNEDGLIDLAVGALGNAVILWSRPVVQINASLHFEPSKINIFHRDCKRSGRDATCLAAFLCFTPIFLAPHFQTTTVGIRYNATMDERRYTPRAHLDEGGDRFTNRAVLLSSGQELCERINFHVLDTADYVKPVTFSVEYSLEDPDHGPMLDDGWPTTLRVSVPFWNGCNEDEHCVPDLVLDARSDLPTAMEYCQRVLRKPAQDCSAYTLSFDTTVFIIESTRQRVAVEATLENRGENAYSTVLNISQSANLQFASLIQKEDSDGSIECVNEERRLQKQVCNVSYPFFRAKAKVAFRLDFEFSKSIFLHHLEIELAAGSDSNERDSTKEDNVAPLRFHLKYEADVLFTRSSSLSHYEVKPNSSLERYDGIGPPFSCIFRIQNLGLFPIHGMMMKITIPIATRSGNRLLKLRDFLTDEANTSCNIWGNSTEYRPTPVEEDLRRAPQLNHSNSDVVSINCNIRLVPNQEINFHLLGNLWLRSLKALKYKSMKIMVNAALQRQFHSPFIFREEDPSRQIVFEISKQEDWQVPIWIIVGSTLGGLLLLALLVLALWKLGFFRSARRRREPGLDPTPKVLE
T3 sequence (P09055 21-798): as the sequence (P09055 21-798, chain 2 of 2, further chain) above
T2 sequence (O75578 23-1167): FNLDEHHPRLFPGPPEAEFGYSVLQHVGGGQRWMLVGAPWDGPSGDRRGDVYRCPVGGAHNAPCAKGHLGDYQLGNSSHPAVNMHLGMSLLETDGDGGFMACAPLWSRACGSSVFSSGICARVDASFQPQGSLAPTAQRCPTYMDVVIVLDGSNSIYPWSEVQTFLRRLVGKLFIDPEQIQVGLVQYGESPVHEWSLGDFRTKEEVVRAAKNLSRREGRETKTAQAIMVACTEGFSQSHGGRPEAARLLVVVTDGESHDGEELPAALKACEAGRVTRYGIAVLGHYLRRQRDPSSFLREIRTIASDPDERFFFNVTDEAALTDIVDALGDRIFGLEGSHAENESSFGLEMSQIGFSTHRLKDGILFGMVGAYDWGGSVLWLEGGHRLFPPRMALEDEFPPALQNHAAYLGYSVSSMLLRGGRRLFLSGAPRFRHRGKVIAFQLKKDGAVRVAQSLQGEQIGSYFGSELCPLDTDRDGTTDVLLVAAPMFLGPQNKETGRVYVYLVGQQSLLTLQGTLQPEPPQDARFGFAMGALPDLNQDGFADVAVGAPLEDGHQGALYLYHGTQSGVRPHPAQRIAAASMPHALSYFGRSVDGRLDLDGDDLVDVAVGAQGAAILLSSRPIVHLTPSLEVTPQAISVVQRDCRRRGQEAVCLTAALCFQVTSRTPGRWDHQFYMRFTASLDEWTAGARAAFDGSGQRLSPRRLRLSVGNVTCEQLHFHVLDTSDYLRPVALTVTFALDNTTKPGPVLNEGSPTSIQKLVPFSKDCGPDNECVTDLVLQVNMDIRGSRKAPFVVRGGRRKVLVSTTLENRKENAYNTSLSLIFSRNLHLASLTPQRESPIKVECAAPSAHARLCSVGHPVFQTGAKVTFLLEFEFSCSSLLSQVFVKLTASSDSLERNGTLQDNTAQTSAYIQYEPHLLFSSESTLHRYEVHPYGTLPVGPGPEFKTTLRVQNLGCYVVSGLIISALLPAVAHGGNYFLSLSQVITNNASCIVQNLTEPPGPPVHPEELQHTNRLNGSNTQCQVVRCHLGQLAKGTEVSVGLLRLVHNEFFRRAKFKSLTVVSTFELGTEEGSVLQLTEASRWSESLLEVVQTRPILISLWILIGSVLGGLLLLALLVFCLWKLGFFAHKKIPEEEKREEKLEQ
T2 sequence (P09055 21-798): as the sequence (P09055 21-798, chain 2 of 2, further chain) above
Description for α2 I-domain: Peptides contain a binding motif (such as GFOGER) flanked on either side by five GPP repeats and a GPC triplet at both the N- and C-termini. […] Peptides were dissolved at 5 mg/ml in 0.01 M acetic acid, heated to 70 °C for 5 min and allowed to cool overnight to enable triple helix folding. […]

Regarding `CC1(C)SCN(S(=O)(=O)c2ccccc2)[C@@H]1C(=O)N[C@@H](CNC(=O)NCc1ccccc1)C(=O)O` [TC-I-15], the “Effect on α1 I-domain adhesion to GLOGEN” value at α1 I-domain was “unaffected”. Besides, on α10β1, the “Inhibition of α10β1-expressing C2C12 cell adhesion (dose curve)” value was “no inhibition was seen”. For the same compound, the IC50 on α11β1 (C2C12-α11β1, GLOGEN coating, 5 mM MgCl2, 1 h RT, read-out: IC50, inhibition of α11β1-expressing C2C12 cell adhesion to GLOGEN) worked out at 177000 nM. Besides, the “Effect on constitutively active E318A mutation of α2β1” value with E318A mutation of α2β1 is recorded as “no effect”. Moreover, in the experiment with platelets, the “Effect on adhesion of platelets to fibronectin and fibrinogen” value is listed as “no effect”.
For the compound obtustatin (peptide), the IC50 amounted to 450 nM in [1] and 960 nM in [2].
On to “CTTGPCCRQCKLKPAGTTCWKTSLTSHYCTGKSCDCPLYPG (disulfide 1-10, 6-29, 7-34, 19-36 (inferred)) [obtustatin]”, for which, on α1 I-domain, the “Effect on α1 I-domain adhesion to GLOGEN” value was “unaffected”. In addition, the “Effect on α2 I-domain adhesion to GFOGER” value at α2 I-domain is “unaffected”. Moreover, the “Inhibition of α2β1-expressing C2C12 cell adhesion (dose curve)” value on α2β1 [3] is given as “no inhibition was observed”. The “Inhibition of α10β1-expressing C2C12 cell adhesion (dose curve)” value on α10β1 is listed as “no inhibition was observed”. In addition, the “Inhibition of α11β1-expressing C2C12 cell adhesion (dose curve)” value on α11β1 (C2C12-α11β1, GFOGER and GLOGEN coatings) is “no inhibition was observed”. Besides, the “Effect on HT1080 adhesion to GFOGER” value at α2β1 [4] was “no effect”. In addition, in the experiment on Lewis lung carcinoma, the “Reduction of tumour development” value was 50%. Moreover, the “Effect on melanoma growth” value with melanoma is given as “blocked melanoma growth”.
